Data set [1] addresses T1, NK1R (Rattus norvegicus, UniProt P14600). Briefly: FRET biosensors of compartmentalized signaling (ERK, PKC, cAMP) in NK1R-expressing HEK293 cells. The data set is classed as cell-based. More on the design: Full length and truncated 6312 rat HA-NK1R have been described; expressed in transfected cells; host or cells: HEK293 (transient). As to conditions: agonist alone, imaged over 20 min. The procedure:
To study the link between NK1R trafficking and signaling, the NK1R and Förster Resonance Energy Transfer (FRET) biosensors targeted to detect activated ERK in the cytosol (CytoEKAR) or nucleus (NucEKAR, FIG. 2A), activated PKC at the plasma membrane (pmCKAR) or in the cytosol (CytoCKAR, FIG. 2C), and cAMP at the plasma membrane (pmEpac2) or in the cytosol (CytoEpac2, FIG. 2E) were expressed in HEK293 cells.
HEK293 cells were transfected with 55 ng/well rat NK1R with N-terminal HA. 11 epitope tag (HA-NK1R) or CLR plus RAMP1 and 40 ng/well FRET biosensors. FRET was assessed 48 h after transfection, following serum restriction (0.5% FBS overnight). For experiments using clathrin or dynamin siRNA, cells were transfected with 55 ng/well rat HA-NK1R, 40 ng/well FRET biosensor and 25 nM/well scrambled, clathrin or dynamin ON-TARGETplus SMARTpool siRNA (GE Dharmacon). FRET was assessed 72 h after transfection, following serum restriction (0.5% FBS overnight). Cells were equilibrated in HBSS at 37° C. and FRET was analyzed using a GE Healthcare INCell 2000 Analyzer. For GFP/RFP emission ratio analysis, cells were sequentially excited using a FITC filter (490/20) with emission measured using dsRed (605/52) and FITC (525/36) filters, and a polychroic optimized for the FITC/dsRed filter pair (Quad4). For CFP/YFP emission ratio analysis, cells were sequentially excited using a CFP filter (430/24) with emission measured using YFP (535/30) and CFP (470/24) filters, and a polychroic optimized for the CFP/YFP filter pair (Quad3). Cells were imaged every 1 min, allowing image capture of 14 wells per minute. Baseline emission ratio images were captured for 4 min. […] Cells were then stimulated with the positive control (200 nM phorbol 12,13-dibutyrate for ERK; 200 nM phorbol 12,13-dibutyrate with phosphatase inhibitor cocktail for PKC; 10 μM forskolin, 100 μM 3-isobutyl-1-methylxanthine, 100 nM PGE1 for cAMP) for 10 min to generate a maximal increase, and positive emission ratio images were captured for 4 min. Data were analyzed as described and expressed as emission ratios relative to baseline for each cell (F/F0). Cells with >10% change in F/F0 after stimulation with positive controls were selected for analysis.

The target of data set [2] is T1, NK1R. Briefly: Calcium mobilization assay, agonist mode, HEK293 cells expressing NK1R. The data set is classed as cell-based. Also on record: Full length and truncated 6312 rat HA-NK1R have been described; expressed in transfected cells; host or cells: HEK293. An excerpt:
GR73632 was conjugated to cholestanol (Compound 3) or ethyl ester (GR73632-ethyl ester) via a flexible PEG linker. The effect of these compounds in HEK293 cells expressing NK1R was then studied.
(In general: Calcium assays in cells follow changes in intracellular calcium, usually with a dye or a luminescent sensor.)

For data set [3], the target named is T2, endothelin converting enzyme 1 (Homo sapiens, UniProt P42892).
T2 sequence (P42892 1-770): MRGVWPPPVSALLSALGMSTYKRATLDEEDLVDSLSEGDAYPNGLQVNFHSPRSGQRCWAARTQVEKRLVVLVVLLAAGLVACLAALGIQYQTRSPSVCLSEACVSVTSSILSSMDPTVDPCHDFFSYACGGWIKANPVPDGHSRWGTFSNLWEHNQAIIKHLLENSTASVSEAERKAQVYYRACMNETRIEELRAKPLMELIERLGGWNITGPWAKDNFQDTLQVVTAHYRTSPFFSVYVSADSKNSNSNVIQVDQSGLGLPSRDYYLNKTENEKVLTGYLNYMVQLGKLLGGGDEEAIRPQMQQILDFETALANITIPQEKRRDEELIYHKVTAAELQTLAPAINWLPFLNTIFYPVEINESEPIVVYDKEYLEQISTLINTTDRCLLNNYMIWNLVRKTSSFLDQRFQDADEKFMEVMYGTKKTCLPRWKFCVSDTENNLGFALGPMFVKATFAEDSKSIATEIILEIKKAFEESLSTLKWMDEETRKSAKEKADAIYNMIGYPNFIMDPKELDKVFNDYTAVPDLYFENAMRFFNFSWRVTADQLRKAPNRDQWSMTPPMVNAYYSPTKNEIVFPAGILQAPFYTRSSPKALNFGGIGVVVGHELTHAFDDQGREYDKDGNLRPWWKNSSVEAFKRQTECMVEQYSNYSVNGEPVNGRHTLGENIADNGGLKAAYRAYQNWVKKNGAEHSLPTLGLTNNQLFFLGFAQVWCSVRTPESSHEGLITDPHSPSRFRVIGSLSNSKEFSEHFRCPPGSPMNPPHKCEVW
As to conditions: cited from earlier work.

Data set [4] addresses T1, NK1R. Briefly: BRET between NK1R-RLuc8 and βarr1/2-YFP in HEK293 cells. The data set is classed as cell-based. As to conditions: agonist alone. Also on record: Full length and truncated 6312 rat HA-NK1R have been described; expressed in transfected cells; host or cells: HEK293 (transient). The procedure: Bioluminescence Resonance Energy Transfer (BRET) was employed to quantitatively assess the proximity of the NK1R to key regulators of GPCR trafficking (βarrs), and resident proteins of plasma (KRas) and early endosomal (Rab5a) membranes in HEK293 cells (FIG. 1A).
HEK293 cells were transfected with the following cDNAs: 1 μg NK1R-RLuc8 or 1 μg CLR-RLuc8+1 μg Myc-RAMP1+4 μg KRas-Venus, 4 μg Rab5a-Venus, 4 μg βarr1-YFP, or 4 μg βarr2-YFP; or 1 μg NK1R+0.5 μg Gαq-RLuc8+1 μg Gβ1+4 μg Gγ2-Venus; or 1 μg NK1R+0.5 μg Gαq-RLuc8+1 μg Gβ1+1 μg Gγ2+4 μg Rab5a-Venus. After 48 h, cells were equilibrated in Hank's balanced salt solution (HBSS) at 37° C., and incubated with the RLuc substrate coelenterazine h (5 μM, 15 min).
For orientation: BRET reads energy transfer from a luciferase to a nearby fluorophore.

Where a SMILES comes first, the peptide text is derived from it. [ ]: non-standard residue; d: D form. The star is where a group is joined. X1 = CC(C)CCC[C@@H](C)[C@H]1CC[C@H]2[C@@H]3CC[C@H]4C[C@@H](O*)CC[C@]4(C)[C@H]3CC[C@]12C; NMeL = CN[C@@H](CC(C)C)C(=O)O; PEG4 = NCCOCCOCCOCCOCCC(=O)O; PEG3 = NCCOCCOCCOCCC(=O)O; Ava = NCCCCC(=O)O

Here are results for two compounds from US11324832B2, “Tripartite modulators of endosomal G protein-coupled receptors” (Endosome Therapeutics, Inc., priority 2015, dated 2022).

As a reminder, the EC50 is the concentration at which the effect is half-maximal.

T1 sequence (P14600 whole entry, the tested form may be a part): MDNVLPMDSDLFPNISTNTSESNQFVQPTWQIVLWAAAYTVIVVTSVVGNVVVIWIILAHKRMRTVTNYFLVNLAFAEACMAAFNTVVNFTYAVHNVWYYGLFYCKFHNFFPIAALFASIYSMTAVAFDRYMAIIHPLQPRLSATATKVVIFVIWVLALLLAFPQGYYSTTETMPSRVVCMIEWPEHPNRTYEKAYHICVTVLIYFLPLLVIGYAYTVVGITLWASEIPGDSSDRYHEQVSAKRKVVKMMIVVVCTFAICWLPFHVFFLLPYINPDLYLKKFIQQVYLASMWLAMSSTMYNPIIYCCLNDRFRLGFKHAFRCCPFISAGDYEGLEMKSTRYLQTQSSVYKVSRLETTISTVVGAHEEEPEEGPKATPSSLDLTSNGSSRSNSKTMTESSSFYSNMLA

For the compound `CSCC[C@H](NC(=O)[C@H](CC(C)C)N(C)C(=O)[C@@H]1CCCN1C(=O)[C@H](Cc1ccccc1)NC(=O)[C@H](Cc1ccccc1)NC(=O)CCCCN)C(N)=O` [GR73632, Ava-Phe-Phe-Pro-N-MeLeu-Met-NH2] (H-[Ava]FFP[NMeL]M-NH2), on NK1R [1], the “cytosolic ERK activation (FRET CytoEKAR)” value was “stimulated sustained cytosolic and nuclear ERK phosphorylation”; the “nuclear ERK activation (FRET NucEKAR)” value is “stimulated sustained cytosolic and nuclear ERK phosphorylation”. Also, the EC50 at NK1R [2] (HEK293 cells expressing NK1R, given as logEC50 (negative)) is 933 pM. Moreover, the “susceptibility to cleavage by endothelin converting enzyme 1” value in data set [3] is “not susceptible to cleavage”.

With `CSCC[C@H](NC(=O)[C@H](CC(C)C)N(C)C(=O)[C@@H]1CCCN1C(=O)[C@H](Cc1ccccc1)NC(=O)[C@H](Cc1ccccc1)NC(=O)CCCCNC(=O)CCOCCOCCOCCOCCNC(=O)CCOCCOCCOCCNC(=O)CCOCCOCCOCCOCCNC(=O)[C@H](CC(=O)O[C@H]1CC[C@@]2(C)[C@@H](CC[C@@H]3[C@@H]2CC[C@]2(C)[C@@H]([C@H](C)CCCC(C)C)CC[C@@H]32)C1)NC(C)=O)C(N)=O` [Compound 3] (Ac-D(X1)[PEG4][PEG3][PEG4][Ava]FFP[NMeL]M-NH2), at NK1R [1], the “cytosolic ERK activation (FRET CytoEKAR)” value is “no cytosolic ERK” and the “nuclear ERK activation (FRET NucEKAR)” value was “stimulates sustained nuclear ERK phosphorylation”. Moreover, the “decrease in potency compared to the free agonist” value on NK1R [2] (calcium mobilization) is given as around 100 fold. Besides, at NK1R [4], the “recruitment of βarrs (BRET NK1R-RLuc8 / βarr1-YFP, βarr2-YFP)” value is recorded as “does not induce recruitment of βarrs”.
